Where two headings read alike, the source gives them in different places.
Key:
Male Sprague-Dawley Rats = experiment: Serum clinical chemistries in male Sprague-Dawley rats; format: in vivo
Experimental: Measurement of Antioxidant Activity and Bioavailability of Compounds of Formula (1) By In Vivo Screening in Male Sprague-Dawley Rats
(§1) A typical experiment consists of 4-6 groups of rats (N=5 per group) with 1 group being a control which receives no MDL compound and the other groups being treated with 0.3% MDL compound. […] Mix the MDL compound with approximately 50 grams of food using a mortar and pestle. This is added to the remainder of the food and mixed for 3 hours on a rotary mixer. In the morning of day 5, anesthetize non-fasted rats with carbon dioxide, and collect blood by cardiac puncture. Sacrifice rats by cervical dislocation. Record body weights and liver weights in grams. Record food consumption as grams·day^-1 ·rat^-1. Deaths are recorded as mortality. Use aliquots of fresh serum for clinical chemistries, thiobarbituric acid reactive substances (TBARS) and conjugated diene measurements. Freeze aliquots of serum (~0.5 mL) and whole livers at -20° C. for compound and metabolite concentration determination at a later time.
Allow blood to clot at room temperature for 30 minutes. Obtain serum after centrifugation for 10 min at 4° C. at 3000 rpm in a Beckman J-6M/E centrifuge with a JS-4.2 rotor. […] Calculate ALP, ALT, and AST as units/L. Calculate cholesterol, triglycerides, and glucose as mg/dL.

[1] = tested on: oxidation of serum lipids; experiment: TBARS assay (oxidation of serum lipids) in male Sprague-Dawley rats; format: in vivo; settings: feed or water, 96 h, rat serum, 4 days, N = 5, CuSO4-initiated, 3 hr, read-out: TBARS, percent of control
Experimental: as §1
In this assay the oxidation of serum lipids is initiated with CuSO4, resulting in the formation of aldehydes, such as malondialdehyde (MDA). Upon incubation with thiobarbituric acid, the absorbance of the aldehydes can be detected at 530-540 nm. […] Measure TBARS as follows: mix 100 μL of serum with 400 μL of a 5 mmol CuSO4 solution and incubate at 37° C. for 3 hr. Stop the reactions by addition of 1.0 mL of 20% trichloroacetic acid. […] Centrifuge samples briefly to pellet undissolved material, and transfer the supernatants to a 96-well microtiter plate. Measure absorbances at 540 nm using a Biotek model EL311 microplate reader. The nmoles of MDA produced are calculated from a standard curve of 0 to 10 nmoles of MDA prepared from malonaldehyde bis(dimethylacetal). Serum samples from treated rats are compared to serum samples from control rats that received no MDL compound.

[2] = Animal parameters (food, body weight, liver weight, mortality) in male Sprague-Dawley rats; format: in vivo; settings: for mortality at 96 h: po, read-out: mortality (deaths per group); for mortality at 96 h / body wt., percent of control / lw/bw (liver weight/body weight), percent of control: rat
Source text: (§2) A typical experiment consists of 4-6 groups of rats (N=5 per group) with 1 group being a control which receives no MDL compound and the other groups being treated with 0.3% MDL compound. Some of the compounds are either repeated at 0.3% or evaluated again at the lower dose of 0.1%. House Male Sprague-Dawley rats, 50-100 g, (Harlan Laboratories, Indianapolis, Ind.) in groups of 5, feeding ad libitum water and Purina Rodent chow (#5002) with or without MDL compound as a dietary admixture for 4 days. Make dietary admixtures (0.3%) by mixing 1.2 grams of an MDL compound with 400 grams of Purina rodent chow (#5002). Mix the MDL compound with approximately 50 grams of food using a mortar and pestle. This is added to the remainder of the food and mixed for 3 hours on a rotary mixer. In the morning of day 5, anesthetize non-fasted rats with carbon dioxide, and collect blood by cardiac puncture. Sacrifice rats by cervical dislocation. Record body weights and liver weights in grams. Record food consumption as grams·day^-1 ·rat^-1. Deaths are recorded as mortality. Use aliquots of fresh serum for clinical chemistries, thiobarbituric acid reactive substances (TBARS) and conjugated diene measurements. Freeze aliquots of serum (~0.5 mL) and whole livers at -20° C. for compound and metabolite concentration determination at a later time.

[3] = HPLC quantitation of compound and metabolite concentration in rat serum and liver; settings: in vivo; for concentration at 96 h: po, 0.3% in diet, 4 days
Source text: as §2
Determine serum and liver concentrations of parent compound and the metabolites, bisphenol and diphenoquinone, by reverse phase HPLC using a Waters 990 Powerline system. Homegenize livers (1 gram samples) with 5.0 mL PBS, pH 7.4, using a Polytron tissue homogenizer at setting 5 for 20-30 seconds. Extract serum or liver homogenates as follows: add 100 μL of either serum or homogenate to 2.0 mL diethyl ether:ethanol (3:1) while vortexing the tube. Cap the sample tubes and centrifuge for 10 min at 5° C. at 3500 rpm in a Beckman GPKR centrifuge with a GH 3.7 rotor. Transfer the supernatants to clean tubes and dry under N2. Reconstitute samples with 200 μL of acetonitrile:hexane:0.1 M ammonium acetate (90:6.5:3.5, by vol.). Then, inject 100 μL onto a Waters Deltapak C18-300 Å column, and elute with an 83% acetonitrile:17% water mobile phase at a flow rate of 1.5 mL/min. Record absorbances at the wavelengths of 240, 254, and 420nm. Calculate compound concentrations from known quantities of authentic parent compounds after correction for recovery. […]. Calculate concentrations as μg/mL of serum and μg/g of liver.

VCAM-1 = settings: vascular endothelial cells; Mauri, N. et al.; cited from earlier work
ICAM-1 = settings: vascular endothelial cells; Mauri, N. et al.; cited from earlier work
[4] = rat serum, 0.3% in diet, 4 days, N = 5
[5] = in vivo, 0.3% in diet, 4 days, N = 5
[6] = mean N = 5, read-out: Serum Parent (parent compound concentration)
[7] = mean N = 5, read-out: Liver Parent (parent compound concentration)

Row | Compound | ALP (alkaline phosphatase), percent of control (Male Sprague-Dawley Rats; [4]) [%] | ALT (alanine aminotransferase), percent of control (Male Sprague-Dawley Rats; [4]) [%] | AST (aspartate aminotransferase), percent of control (Male Sprague-Dawley Rats; [4]) [%] | GLUC (glucose), percent of control (Male Sprague-Dawley Rats; rat, in vivo) [%] | response vs control in vivo at 0.3 % in diet [1] [%] | food (grams eaten per day per rat), percent of control ([2]; in vivo) [%] | mortality at 96 h [2, 5] [%] | body wt., percent of control ([2]; in vivo) [%] | Liver Bis (bisphenol concentration) ([3]; 5760 min) | Liver Parent (parent compound concentration) ([3]; 5760 min) | Liver Quin (diphenoquinone concentration) ([3]; 5760 min) | Serum Bis (bisphenol concentration) ([3]; 5760 min) | Serum Quin (diphenoquinone concentration) ([3]; 5760 min) | concentration at 96 h [3, 6] [ng/mL] | food (grams eaten per day per rat), percent of control ([2]; 0.3% in diet, 4 days, N = 5) [%] | body wt., percent of control ([2]; 0.3% in diet, 4 days, N = 5) [%] | concentration at 96 h [3, 7] [ng/g] | other results
1 | CC(C)=CCC[C@H](C)CCOc1ccc(O)c(C(C)(C)C)c1 [103,649] | 74 | 119 | 82 | 101 | 29 | 95 | 0 | 94 | 0 | 0 | 0 | 0 | 0 | 1400 | – | – | – | response vs control in vivo at 0.3 % in diet (Male Sprague-Dawley Rats; Rattus norvegicus, feed or water, 96 h, read-out: TRIG (triglycerides), percent of control): 143%
2 | CC(C)=CCC[C@H](C)CCSc1ccc(O)c(C(C)(C)C)c1 [103,714] | 111 | 120 | 104 | 95 | 21 | – | 0 | – | 0 | 0 | 0 | 0 | 0 | 2700 | 102 | 103 | – | –
3 | CC(C)=CCCC(C)CCSc1cc(C(C)(C)C)c(O)c(C(C)(C)C)c1 (stereo not drawn) [103,960] | 125 | 117 | – | 110 | 24 | 105 | 0 | – | – | – | 0 | 0 | 0 | 8700 | – | 100 | 47300 | AST (aspartate aminotransferase), percent of control (Male Sprague-Dawley Rats; rat, in vivo): 102%; lw/bw (liver weight/body weight), percent of control ([2]; 0.3% in diet, 4 days, N = 5): 130%
4 | CC(C)CCCC(C)CCOc1cc(C(C)(C)C)c(O)c(C(C)(C)C)c1 (stereo not drawn) [104,102] | – | 114 | 82 | 98 | 71 | – | 0 | – | 0 | – | 0 | 0 | 0 | 32800 | 92 | 97 | 481000 | ALP (alkaline phosphatase), percent of control (Male Sprague-Dawley Rats; rat, in vivo): 101%
5 | CC(C)CCCC(C)CCOc1ccc(O)c(C(C)(C)C)c1 (stereo not drawn) [104,191] | 81 | 149 | 146 | 106 | 20 | 76 | 0 | 92 | 0 | – | 0 | 0 | 0 | 6900 | – | – | 16100 | –
6 | CC(CCCC(C)(C)O)CCSc1cc(C(C)(C)C)c(O)c(C(C)(C)C)c1 (stereo not drawn) [104,487] | 137 | 129 | 124 | – | 87 | – | 0 | – | – | – | 0 | 0 | 0 | 4100 | 90 | 95 | 3800 | GLUC (glucose), percent of control (Male Sprague-Dawley Rats; [4]): 92%
7 | CC(C)=CCC[C@@H](C)CCOc1cc(C(C)(C)C)c(O)c(C(C)(C)C)c1 [104,535] | 151 | 108 | – | – | 11 | 95 | 0 | 102 | 0 | – | 0 | 0 | 0 | 16300 | – | – | 60300 | GLUC (glucose), percent of control (Male Sprague-Dawley Rats; [4]): 112%; AST (aspartate aminotransferase), percent of control (Male Sprague-Dawley Rats; rat, in vivo): 94%
8 | CC(C)=CCC[C@H](C)CCOc1cc(C(C)(C)C)c(O)cc1C(C)(C)C [107,059] | – | – | 140 | 96 | 78 | 95 | 0 | – | 0 | 0 | 0 | 0 | 0 | – | – | 95 | – | ALP (alkaline phosphatase), percent of control (Male Sprague-Dawley Rats; rat, in vivo): 118%; ALT (alanine aminotransferase), percent of control (Male Sprague-Dawley Rats; rat, in vivo): 116%; lw/bw (liver weight/body weight), percent of control ([2]; 0.3% in diet, 4 days, N = 5): 107%; Serum Parent (parent compound concentration) ([3]; 5760 min): 0
9 | CC(=O)N[C@@H](CS)C(=O)O [N-acetylcysteine] | – | – | – | – | – | – | – | – | – | – | – | – | – | – | – | – | – | inhibition of cytokine-induced expression of VCAM-1 (VCAM-1): inhibit cytokine-induced expression of VCAM-1; inhibition of cytokine-induced expression of ICAM-1 (ICAM-1): not ICAM-1
10 | S=C(S)N1CCCC1 [pyrollidine dithiocarbamate] | – | – | – | – | – | – | – | – | – | – | – | – | – | – | – | – | – | inhibition of cytokine-induced expression of VCAM-1 (VCAM-1): inhibit cytokine-induced expression of VCAM-1; inhibition of cytokine-induced expression of ICAM-1 (ICAM-1): not ICAM-1

— patent publication US6114572A, “Substituted phenols and thiophenols useful as antioxidant agents” (priority 1997, dated 2000)
